Values after ≈ are worked out from the molar mass of the structure shown. Where a name gives a salt, the structure may show the parent alone.
Test: Solubility
Assay type: physicochemical
Settings: for Solubilités : soluble dans le diméthyl sulfoxyde: in dimethyl sulfoxide (DMSO); for solubility: in water, read-out: Solubilités : soluble dans l'eau

Solubilités : soluble dans le diméthyl sulfoxyde	solubility	SMILES
15%	100 mg/mL (≈ 411 mM)	CC1CCCCC1OCC(O)CNC(C)(C)C (centres unmarked) [Exemple 1, tertiobutylamino-3 (méthyl-2 cyclohexyloxy)-1 propanol-2, maléate]
	20 mg/mL	C#CC(C)(C)NCC(O)COC1CCCCC1 (centres unmarked) [Exemple 3, (diméthyl-1,1 propyne-2 yl-1) amino-3, cyclohexyloxy-1 propanol-2 oxalate]
18%	100 mg/mL (≈ 436 mM)	CC(C)NCC(O)COCC1CCCCC1 (centres unmarked) [Exemple 4, isopropylamino-3, cyclohexyl méthoxy-1 propanol-2 maléate]
10%	25 mg/mL (≈ 103 mM)	CC(C)(C)NCC(O)COCC1CCCCC1 (centres unmarked) [Exemple 5, tertiobutylamino-3 cyclohexyl méthoxy-1, propanol-2, maléate]
10%	20 mg/mL (≈ 67.7 mM)	CC(C)(C)NCC(O)COCCC1=CCC2CC1C2(C)C (centres unmarked) [Exemple 6, tertiobutylamino-3 [(diméthyl-6-6, bicyclo (3,1,1)hepten-2 yl)-2 éthoxy7-1 propanol-2, maléate]
15%	100 mg/mL (≈ 414 mM)	CC(C)(C)NCC(O)COCC1CC=CCC1 (centres unmarked) [Exemple 8, tertiobutylamino-3 (cyclohexen-3 yl-1) méthoxy-1 propanol-2, maléate]

From patent publication EP0037777A1, “Process for preparation of cycloalcoyl propanol amines useful as medicine” (PIERRE FABRE S.A., priority 1980, dated 1981)
